Among the data in ChEMBL document CHEMBL1153143, “Structure-based design, synthesis and biological evaluation of new N-carboxyphenylpyrrole derivatives as HIV fusion inhibitors targeting gp41” (Bioorg Med Chem Lett, 2010) are IC50, CC50 and selectivity ratio values, retold here.

What is called IC50 is the concentration that gives 50% inhibition. By CC50 is commonly meant the concentration giving 50% cytotoxicity. The low end stands for greater toxicity to the cells, the high end for lower toxicity to the cells.

Series [1] can be described thus: Inhibition of HIV1 3B gp41 six-helix bundle formation after 30 mins by native-polyacrylamide gel electrophoresis. Also noted: species or system Human immunodeficiency virus 1.
The test system of series [2] is Human immunodeficiency virus 1. Nature of the series: Antiviral activity against HIV1 3B in human MT2 cells assessed as inhibition of p24 antigen level after 4 days by ELISA. In kind it is functional, organism-based. The following applies: Human immunodeficiency virus 1, 3B, MT2, 96 h.
In series [3] the test system is MT2. The experiment in a line: Cytotoxicity against human MT2 cells after 4 days by XTT assay. In kind it is cell-based. The following applies: mt2, 96 h. (In general: Tetrazolium assays rely on reduction of a dye to a coloured formazan, in cell work by metabolically active cells.)
Series [4] is described as follows: Selectivity index, ratio of CC50 for human MT2 cells to EC50 for HIV1 3B. In kind it is toxicity, cell-based. The following applies: read-out: Ratio CC50/IC50.
Series [5] has as its system Human immunodeficiency virus 1. The experiment in a line: Antiviral activity against HIV1 3B in human MT2 cells assessed as inhibition of cell-cell fusion. In kind it is functional, organism-based. The following applies: Human immunodeficiency virus 1, 3B.
In series [6] the test system is Human immunodeficiency virus 1. The experiment in a line: Antiviral activity against HIV1 3B in human MT2 cells assessed as reduction of virus-induced cytopathogenicity. In kind it is functional, organism-based. The following applies: Human immunodeficiency virus 1, 3B. A general note: Cytopathic effects are the visible damage that an infection or toxin causes in cultured cells.

`Cc1ccc(C)n1-c1ccc(O)c(C(=O)O)c1`: the IC50 in series [1] was 29.4 µM; in series [2], 28.2 µM; in series [5], 43.2 µM; in series [6] it was 55.5 µM. Moreover, half-maximal cytotoxicity in series [3] (CC50) was put at 334 µM. The selectivity ratio in series [4] amounted to 11.8.

Regarding `Cc1ccc(C)n1-c1ccc(-c2ccc(CCC(=O)O)cc2)c(C(=O)O)c1`, the IC50 in series [1] stood at 21.8 µM; in series [2], 8.3 µM; in series [5] it was 8.3 µM; in series [6], 13.1 µM. Moreover, the CC50 in series [3] was 227 µM. Also, the selectivity ratio in series [4] came out at 27.4.

With `Cc1ccc(C)n1-c1ccc(-c2ccccc2)c(C(=O)O)c1`, the IC50 in series [1] worked out at 29 µM; in series [2], 17.8 µM; in series [5], 59.2 µM; in series [6], 37.9 µM. The molecule also registered a CC50 in series [3] of 290 µM. Also, in series [4], the selectivity ratio came out at 16.3.

In the case of `Cc1ccc(C)n1-c1ccc(-c2ccc(C(=O)O)cc2)c(C(=O)O)c1`, the 50% inhibitory concentration (IC50) stood at 20.5 µM in series [1], 25.6 µM in series [2], 26 µM in series [5] and 33.9 µM in series [6]. Moreover, in series [3], half-maximal cytotoxicity (CC50) was put at 355 µM. The selectivity ratio in series [4] was 13.8.

For `Cc1ccc(C)n1-c1ccc(-c2ccc(/C=C/C(=O)O)cc2)c(C(=O)O)c1`, the half-inhibitory concentration (IC50) in series [1] was 20.7 µM; in series [2] it was 4.91 µM; in series [5] it was 3.6 µM; in series [6], 7.71 µM. Moreover, in series [3], it took 255 µM to reach half-maximal cytotoxicity (CC50).

For `Cc1ccc(-c2ccc(-n3c(C)ccc3C)cc2C(=O)O)cc1`, the IC50 in series [1] amounted to 21.3 µM; in series [2], 18.2 µM; in series [5] it was 51.6 µM; in series [6], 79.5 µM. Besides, in series [3], the CC50 was determined as 280 µM. For the same molecule, the selectivity ratio in series [4] was found to be 15.4.
